From PubChem BioAssay AID520 (NMMLSC, 2006) come the findings set out here.

This assay addresses N-formyl peptide receptor 2 (Homo sapiens) (UniProt P25090). As to the kind of experiment: concentration-dependent FPRL1 ligand displacement – cell-based, FPR counter-screen, fluorescent ligand, dose response (AID 520). As to conditions: FPRL1-expressing cells, fluorescent ligand binding inhibition; for Ki: measured here: FPRL1 binding Ki. For orientation: Counterscreens check selectivity or assay interference.

Activity calls are given as the source filed them. How the calls were made is not given here.

Sequence of N-formyl peptide receptor 2 (Homo sapiens) (P25090 whole entry, looked up): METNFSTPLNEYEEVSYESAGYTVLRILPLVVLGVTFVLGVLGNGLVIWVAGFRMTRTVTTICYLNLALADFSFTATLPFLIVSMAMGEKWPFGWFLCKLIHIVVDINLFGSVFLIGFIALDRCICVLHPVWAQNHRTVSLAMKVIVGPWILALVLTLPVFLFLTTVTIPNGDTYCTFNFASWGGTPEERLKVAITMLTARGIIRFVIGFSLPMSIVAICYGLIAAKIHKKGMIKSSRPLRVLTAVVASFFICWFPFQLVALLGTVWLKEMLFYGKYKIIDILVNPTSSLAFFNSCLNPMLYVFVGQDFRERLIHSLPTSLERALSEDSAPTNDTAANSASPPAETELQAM

For `O=C(O)C1CC=CCC1C(=O)N1CCN(c2nc(-c3ccccc3)c3ccccc3n2)CC1` (centres undefined), the inhibition constant Ki – broadly, the equilibrium dissociation constant of an inhibitor or competing ligand from its target – is greater than 40.3 µM. For the compound `CCOc1ccc(/C(O)=C2/C(=O)C(=O)N(CC3CCCO3)C2c2ccc(C)o2)cc1` (centres undefined), the IC50 – broadly, the concentration at which inhibition is half-maximal – was > 66.7 µM (inactive) and the inhibition constant Ki was greater than 40.3 µM. Consider `Cc1csc(NC(=O)CCn2c(=O)oc3ccccc32)n1`, for which the Ki was greater than 40.3 µM.

As to `Nc1ccc(Nc2ccccc2N)cc1`, the Ki was found to be 9.1 µM. That is a single-digit micromolar value.

On to `CCOc1ccc(C2C(C(=O)c3ccco3)=C(O)C(=O)N2CCCn2ccnc2)cc1` (centres undefined), for which the IC50 is > 66.7 µM (inactive) and the Ki is greater than 40.3 µM. As for `O=C(O)C1CCCCC1C(=O)Nc1ccccc1Cl` (centres undefined), the Ki was greater than 40.3 µM.

As to `Cc1cccc(-n2nc3c(c2NC(=O)c2ccco2)CSC3)c1C`, the Ki is greater than 40.3 µM. Same read-out and setting: to `O=C(O)CC1Oc2ccc(Cl)cc2NC1=O` (centres undefined) belongs greater than 40.3 µM. On to `N#Cc1c(C(F)(F)F)cc(-c2ccccc2)nc1SCc1nc(N)nc(N2CCOCC2)n1`, for which the Ki is greater than 40.3 µM.

Regarding `CCc1ccccc1NC(=O)C(C#N)Cc1cccnc1` (centres undefined), the Ki was greater than 40.3 µM. `COc1ccc(-c2nnc(Nc3nc4c(OC)cccc4s3)o2)cc1` returned a Ki greater than 40.3 µM. As for `CCOc1cc(C2C(C(=O)c3ccco3)=C(O)C(=O)N2CCc2ccccc2)ccc1O` (centres undefined), the IC50 is > 66.7 µM (inactive) and the Ki was greater than 40.3 µM. The corresponding values for `COc1ccc(OC)c(C2C(C(=O)c3cc4ccccc4o3)=C(O)C(=O)N2c2cc(C)on2)c1` (centres undefined) are > 66.7 µM (inactive) and greater than 40.3 µM. Take `CCCCNC(=O)c1sc(=S)n2c1[nH]c(=O)c1ccccc12`: the Ki was greater than 40.3 µM. Still for that read-out and setting: to `Fc1ccc(-c2nnc3ccc(N4CCCC4)nn23)cc1` belongs greater than 40.3 µM. Take `Cc1ccc(C(=O)C2=C(O)C(=O)N(Cc3ccccc3)C2c2cccnc2)o1` (centres undefined): the IC50 is > 66.7 µM (inactive) and the Ki is greater than 40.3 µM.

For `Cc1nc(C)c(C(=O)C2=C(O)C(=O)N(CCCn3ccnc3)C2c2ccc(Cl)cc2)s1` (centres undefined), the IC50 is > 66.7 µM (inactive) and the Ki is greater than 40.3 µM. The corresponding values for `CCOc1cccc(/C(O)=C2/C(=O)C(=O)N(Cc3cccnc3)C2c2ccco2)c1` (centres undefined) are > 66.7 µM (inactive) and greater than 40.3 µM. The compound `CCOC(=O)c1oc2cc(O)ccc2c(=O)c1-c1ccccc1OC` came in with a Ki greater than 40.3 µM. The same measure, in the same setting: to `CC1CCN(c2nc(-c3ccccc3)c(C#N)c(=O)[nH]2)CC1` belongs greater than 40.3 µM. Turning to `O=C(C1=C(O)C(=O)N(Cc2ccco2)C1c1ccccc1)c1cccs1` (centres undefined), the IC50 is > 66.7 µM (inactive) and the Ki was greater than 40.3 µM. In the case of `Cc1[nH]n2c(=O)cc(-c3ccc([N+](=O)[O-])cc3)nc2c1-c1ccccc1`, the Ki was determined as 19.1 µM.

Take `COCCN1C(=O)C(O)=C(C(=O)c2cccs2)C1c1ccccc1` (centres undefined): the IC50 was > 66.7 µM (inactive) and the Ki was greater than 40.3 µM. With `Cc1nn(-c2nc3ccccc3s2)c(C)c1Oc1ccccc1O`, the Ki is greater than 40.3 µM. Same read-out and setting: to `CCOc1cc(C(=O)NCc2nnc(SCC(=O)OC)n2C)cc(OCC)c1OCC` belongs 11.2 µM.

For `COc1cc(C2C(C(=O)c3cccs3)=C(O)C(=O)N2Cc2ccco2)cc(OC)c1OC` (centres undefined), the IC50 was > 66.7 µM (inactive) and the Ki is greater than 40.3 µM.

The compound `Cc1nnc(SCc2cnc(-c3ccccc3)o2)[nH]c1=O` gave a Ki greater than 40.3 µM. Same read-out and setting: the value for `COc1ccc(-c2cc(C(F)(F)F)nc(N3CCN(Cc4ccccc4)CC3)n2)cc1OC` was 7.3 µM. `O=C(Cn1c(=O)oc2ccccc21)N1CCN(c2ccccc2)CC1` showed an inhibition constant Ki greater than 40.3 µM.
